Data from paper PMC8964227, “IP-Se-06, a Selenylated Imidazo[1,2-a]pyridine, Modulates Intracellular Redox State and Causes Akt/mTOR/HIF-1α and MAPK Signaling Inhibition, Promoting Antiproliferative Effect and Apoptosis in Glioblastoma Cells” (Oxidative Medicine and Cellular Longevity, 2022).

Legend:
[1] = tested on: HT-22 cells; assay: MTT cytotoxicity assay, HT-22; assay type: cell-based, mouse; conditions: Mus musculus, HT-22; 72 h, MTT
Protocol: (§1) Cell viability after treatments with selenylated imidazo[1,2-a]pyridines (IP-Se-01–IP-Se-10) was analyzed by quantitative colorimetric assay with MTT, according to Mosmann. IP-01, a prototype molecule without the addition of the selenium in its structure, was also tested. A172 and HT-22 cells were cultured in 96-well plates (10^4 cells/well). After confluence, cells were exposed to selenylated imidazo[1,2-a]pyridines (0.1, 1, 10, 100, and 1000 μM) for up to 72 h. After this phase, cell medium was removed and the cells were washed twice with PBS and incubated with MTT solution (0.5 mg/mL) for 2 h. The insoluble formazan was dissolved by adding DMSO (100 μL/well), and colorimetric determination of MTT reduction was measured at 550 nm in a multireader Infinite M200 Tecan. Three independent experiments were conducted, and the results are presented as IC50 (half maximal inhibitory concentration).

[2] = tested on: A172 cells; assay: MTT cytotoxicity assay, A172; assay type: cell-based, human; conditions: for IC50: Homo sapiens, A 172, 72 h, MTT; for Selectivity Index (SI): IC50 in normal cell line (HT-22)/IC50 in A172
Protocol: as §1

SMILES | IC50 [1] [µM] | IC50 [2] [µM] | Selectivity Index (SI) [2]
Cc1ccn2cc(-c3ccccc3)nc2c1 [IP-01] | 153 | 76.3 | 2.0
Cc1ccn2c([Se]c3ccccc3)c(-c3ccccc3)nc2c1 [IP-Se-01] | 75.4 | 98.8 | 0.7
Cc1ccc([Se]c2c(-c3ccccc3)nc3cc(C)ccn23)cc1 [IP-Se-02] | 144 | 73.2 | 1.9
COc1ccc([Se]c2c(-c3ccccc3)nc3cc(C)ccn23)cc1 [IP-Se-03] | 3.9 | 27.6 | 0.1
Cc1ccn2c([Se]c3ccc(Cl)cc3)c(-c3ccccc3)nc2c1 [IP-Se-04] | 306 | 43.6 | 7.0
